What was measured:
PFCDPK1(P.falciparum) = target: T1, PFCDPK1(P.falciparum) (Plasmodium falciparum, UniProt P62344); assay: KinomeScan; assay type: binding; details: read-out: % control
T1 construct: purchased DiscoveRx KINOMEscan

MYO3A = target: T2, MYO3A (Homo sapiens, UniProt Q8NEV4); assay: KinomeScan; assay type: binding; details: read-out: % control
T2 construct: purchased DiscoveRx KINOMEscan

MINK = target: T3, MINK (Homo sapiens, UniProt Q8N4C8); assay: KinomeScan; assay type: binding; details: read-out: % control
T3 construct: purchased DiscoveRx KINOMEscan
T3 sequence (Q8N4C8 whole entry): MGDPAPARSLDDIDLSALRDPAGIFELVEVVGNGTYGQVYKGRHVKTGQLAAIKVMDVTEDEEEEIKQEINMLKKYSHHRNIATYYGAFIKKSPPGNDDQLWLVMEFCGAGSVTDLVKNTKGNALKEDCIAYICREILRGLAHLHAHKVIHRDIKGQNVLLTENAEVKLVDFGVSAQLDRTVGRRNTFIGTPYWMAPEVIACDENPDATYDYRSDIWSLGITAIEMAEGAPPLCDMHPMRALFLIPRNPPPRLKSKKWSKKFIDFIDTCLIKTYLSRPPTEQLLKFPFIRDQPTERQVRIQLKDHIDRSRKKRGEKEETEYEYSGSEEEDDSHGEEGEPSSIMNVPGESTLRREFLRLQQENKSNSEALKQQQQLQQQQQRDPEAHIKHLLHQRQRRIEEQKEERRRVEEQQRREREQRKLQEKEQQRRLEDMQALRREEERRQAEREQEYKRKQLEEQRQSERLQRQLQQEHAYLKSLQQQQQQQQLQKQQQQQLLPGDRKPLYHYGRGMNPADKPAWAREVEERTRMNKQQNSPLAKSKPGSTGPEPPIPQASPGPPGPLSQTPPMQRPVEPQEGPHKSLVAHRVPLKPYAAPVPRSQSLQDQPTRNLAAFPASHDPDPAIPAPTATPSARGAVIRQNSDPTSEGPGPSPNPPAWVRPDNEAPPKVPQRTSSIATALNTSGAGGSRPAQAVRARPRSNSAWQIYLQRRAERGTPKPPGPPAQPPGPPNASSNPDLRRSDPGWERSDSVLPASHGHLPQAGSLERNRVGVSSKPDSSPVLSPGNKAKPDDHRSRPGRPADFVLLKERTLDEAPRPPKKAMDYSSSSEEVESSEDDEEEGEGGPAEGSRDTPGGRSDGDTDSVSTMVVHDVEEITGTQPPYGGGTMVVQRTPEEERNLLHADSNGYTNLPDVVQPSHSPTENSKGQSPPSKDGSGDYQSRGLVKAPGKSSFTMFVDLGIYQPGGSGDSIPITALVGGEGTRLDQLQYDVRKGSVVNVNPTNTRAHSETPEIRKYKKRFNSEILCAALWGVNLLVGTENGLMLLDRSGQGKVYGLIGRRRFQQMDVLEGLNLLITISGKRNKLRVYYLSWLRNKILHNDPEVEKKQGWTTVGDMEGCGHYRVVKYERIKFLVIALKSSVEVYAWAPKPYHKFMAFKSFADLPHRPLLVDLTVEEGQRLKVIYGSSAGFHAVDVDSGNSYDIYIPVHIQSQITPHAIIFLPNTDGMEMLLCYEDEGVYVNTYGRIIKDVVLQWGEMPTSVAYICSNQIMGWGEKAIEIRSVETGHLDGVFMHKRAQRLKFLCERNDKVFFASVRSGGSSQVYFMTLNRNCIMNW

MEK3 = target: T4, MEK3 (Homo sapiens, UniProt P46734); assay: KinomeScan; assay type: binding; details: read-out: % control
T4 construct: purchased DiscoveRx KINOMEscan

RAF1 = target: T5, RAF1 (Homo sapiens, UniProt P04049); assay: KinomeScan; assay type: binding; details: read-out: % control
T5 construct: purchased DiscoveRx KINOMEscan

EPHA2 = target: T6, EPHA2 (Homo sapiens, UniProt P29317); assay: KinomeScan; assay type: binding; details: read-out: % control
T6 construct: purchased DiscoveRx KINOMEscan

PKAC-beta = target: T7, PKAC-beta (Homo sapiens, UniProt P22694); assay: KinomeScan; assay type: binding; details: read-out: % control
T7 construct: purchased DiscoveRx KINOMEscan

MERTK = target: T8, MERTK (Homo sapiens, UniProt Q12866); assay: KinomeScan; assay type: binding; details: read-out: % control
T8 construct: purchased DiscoveRx KINOMEscan

IKK-epsilon = target: T9, IKK-epsilon (Homo sapiens, UniProt Q14164); assay: KinomeScan; assay type: binding; details: read-out: % control
T9 construct: purchased DiscoveRx KINOMEscan

CHL = assay: Anti-proliferation, normal cells (CellTiter-Glo); details: Cricetulus griseus, 72 h
Description: Cells were grown in 96-well culture plates (2500-3000/well). For adherent cell lines, compounds of various concentrations were added into the plates after cells were cultured for 12 hours. Cell proliferation was determined after treatment with compounds for 72 hours. Cell viability was measured using the CellTiter–Glo assay (Promega, USA) according to the manufacturer's instructions, and luminescence was measured in a multi-label reader (Envision, PerkinElmer, USA). Data were normalized to control groups (DMSO) and represented by the mean of three independent measurements with standard error <20%. GI50 values were calculated using Prism 5.0 (GraphPad Software, San Diego, CA).

PIK3CA(E542K) = target: T10, PIK3CA(E542K) (Homo sapiens, UniProt P42336, E542K); assay: KinomeScan; assay type: binding; details: read-out: % control
T10 construct: purchased DiscoveRx KINOMEscan

CHEK1 = target: T11, CHEK1 (Homo sapiens, UniProt O14757); assay: KinomeScan; assay type: binding; details: read-out: % control
T11 construct: purchased DiscoveRx KINOMEscan
T11 sequence (O14757 whole entry): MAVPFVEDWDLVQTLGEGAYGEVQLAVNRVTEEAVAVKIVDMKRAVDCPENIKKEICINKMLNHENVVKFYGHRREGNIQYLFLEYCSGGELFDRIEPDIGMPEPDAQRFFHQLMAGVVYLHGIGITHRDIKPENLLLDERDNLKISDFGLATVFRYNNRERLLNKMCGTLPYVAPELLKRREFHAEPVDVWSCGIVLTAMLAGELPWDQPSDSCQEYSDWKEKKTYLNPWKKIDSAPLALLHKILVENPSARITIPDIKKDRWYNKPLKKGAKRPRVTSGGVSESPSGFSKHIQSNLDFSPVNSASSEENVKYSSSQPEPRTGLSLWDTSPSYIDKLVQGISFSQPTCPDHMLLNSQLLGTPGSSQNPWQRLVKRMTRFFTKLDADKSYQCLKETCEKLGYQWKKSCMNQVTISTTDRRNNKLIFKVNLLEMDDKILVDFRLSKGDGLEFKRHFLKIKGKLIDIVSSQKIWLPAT

ALK(L1196M) = target: T12, ALK(L1196M) (Homo sapiens, UniProt Q9UM73, L1196M); assay: KinomeScan; assay type: binding; details: read-out: % control
T12 construct: purchased DiscoveRx KINOMEscan

CHEK2 = target: T13, CHEK2 (Homo sapiens, UniProt O96017); assay: KinomeScan; assay type: binding; details: read-out: % control
T13 construct: purchased DiscoveRx KINOMEscan

EPHB6 = target: T14, EPHB6 (Homo sapiens, UniProt O15197); assay: KinomeScan; assay type: binding; details: read-out: % control
T14 construct: purchased DiscoveRx KINOMEscan

STK35 = target: T15, STK35 (Homo sapiens, UniProt Q8TDR2); assay: KinomeScan; assay type: binding; details: read-out: % control
T15 construct: purchased DiscoveRx KINOMEscan

PIM1 = target: T16, PIM1 (Homo sapiens, UniProt P11309); assay: KinomeScan; assay type: binding; details: read-out: % control
T16 construct: purchased DiscoveRx KINOMEscan

CAMK2A = target: T17, CAMK2A (Homo sapiens, UniProt Q9UQM7); assay: KinomeScan; assay type: binding; details: read-out: % control
T17 construct: purchased DiscoveRx KINOMEscan

MAP3K1 = target: T18, MAP3K1 (Homo sapiens, UniProt Q13233); assay: KinomeScan; assay type: binding; details: read-out: % control
T18 construct: purchased DiscoveRx KINOMEscan

RET(M918T) = target: T19, RET(M918T) (Homo sapiens, UniProt P07949, M918T); assay: KinomeScan; assay type: binding; details: read-out: % control
T19 construct: purchased DiscoveRx KINOMEscan

SIK = target: T20, SIK (Homo sapiens, UniProt P57059); assay: KinomeScan; assay type: binding; details: read-out: % control
T20 construct: purchased DiscoveRx KINOMEscan

NDR1 = target: T21, NDR1 (Homo sapiens, UniProt Q15208); assay: KinomeScan; assay type: binding; details: read-out: % control
T21 construct: purchased DiscoveRx KINOMEscan

CDK4-cyclinD3 = target: T22, CDK4-cyclinD3 (Homo sapiens, UniProt P11802); assay: KinomeScan; assay type: binding; details: read-out: % control
T22 construct: purchased DiscoveRx KINOMEscan

CSNK1D = target: T23, CSNK1D (Homo sapiens, UniProt P48730); assay: KinomeScan; assay type: binding; details: read-out: % control
T23 construct: purchased DiscoveRx KINOMEscan
T23 sequence (P48730 whole entry): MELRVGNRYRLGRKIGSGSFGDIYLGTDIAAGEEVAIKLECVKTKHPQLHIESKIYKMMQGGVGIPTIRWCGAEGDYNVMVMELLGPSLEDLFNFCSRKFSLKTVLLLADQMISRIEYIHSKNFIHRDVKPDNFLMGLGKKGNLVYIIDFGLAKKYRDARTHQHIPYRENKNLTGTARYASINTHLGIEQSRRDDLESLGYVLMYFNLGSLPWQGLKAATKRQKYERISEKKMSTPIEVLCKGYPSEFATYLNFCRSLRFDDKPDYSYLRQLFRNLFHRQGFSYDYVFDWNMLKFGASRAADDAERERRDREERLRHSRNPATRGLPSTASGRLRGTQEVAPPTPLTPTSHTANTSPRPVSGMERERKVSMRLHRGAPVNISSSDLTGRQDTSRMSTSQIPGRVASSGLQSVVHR

CDKL1 = target: T24, CDKL1 (Homo sapiens, UniProt Q00532); assay: KinomeScan; assay type: binding; details: read-out: % control
T24 construct: purchased DiscoveRx KINOMEscan

PRKG2 = target: T25, PRKG2 (Homo sapiens, UniProt Q13237); assay: KinomeScan; assay type: binding; details: read-out: % control
T25 construct: purchased DiscoveRx KINOMEscan

PAK7 = target: T26, PAK7 (Homo sapiens, UniProt Q9P286); assay: KinomeScan; assay type: binding; details: read-out: % control
T26 construct: purchased DiscoveRx KINOMEscan

WNK4 = target: T27, WNK4 (Homo sapiens, UniProt Q96J92); assay: KinomeScan; assay type: binding; details: read-out: % control
T27 construct: purchased DiscoveRx KINOMEscan

TIE2 = target: T28, TIE2 (Homo sapiens, UniProt Q02763); assay: KinomeScan; assay type: binding; details: read-out: % control
T28 construct: purchased DiscoveRx KINOMEscan

KIT(D816V) = target: T29, KIT(D816V) (Homo sapiens, UniProt P10721, D816V); assay: KinomeScan; assay type: binding; details: read-out: % control
T29 construct: purchased DiscoveRx KINOMEscan
T29 sequence (P10721 26-976 D816V): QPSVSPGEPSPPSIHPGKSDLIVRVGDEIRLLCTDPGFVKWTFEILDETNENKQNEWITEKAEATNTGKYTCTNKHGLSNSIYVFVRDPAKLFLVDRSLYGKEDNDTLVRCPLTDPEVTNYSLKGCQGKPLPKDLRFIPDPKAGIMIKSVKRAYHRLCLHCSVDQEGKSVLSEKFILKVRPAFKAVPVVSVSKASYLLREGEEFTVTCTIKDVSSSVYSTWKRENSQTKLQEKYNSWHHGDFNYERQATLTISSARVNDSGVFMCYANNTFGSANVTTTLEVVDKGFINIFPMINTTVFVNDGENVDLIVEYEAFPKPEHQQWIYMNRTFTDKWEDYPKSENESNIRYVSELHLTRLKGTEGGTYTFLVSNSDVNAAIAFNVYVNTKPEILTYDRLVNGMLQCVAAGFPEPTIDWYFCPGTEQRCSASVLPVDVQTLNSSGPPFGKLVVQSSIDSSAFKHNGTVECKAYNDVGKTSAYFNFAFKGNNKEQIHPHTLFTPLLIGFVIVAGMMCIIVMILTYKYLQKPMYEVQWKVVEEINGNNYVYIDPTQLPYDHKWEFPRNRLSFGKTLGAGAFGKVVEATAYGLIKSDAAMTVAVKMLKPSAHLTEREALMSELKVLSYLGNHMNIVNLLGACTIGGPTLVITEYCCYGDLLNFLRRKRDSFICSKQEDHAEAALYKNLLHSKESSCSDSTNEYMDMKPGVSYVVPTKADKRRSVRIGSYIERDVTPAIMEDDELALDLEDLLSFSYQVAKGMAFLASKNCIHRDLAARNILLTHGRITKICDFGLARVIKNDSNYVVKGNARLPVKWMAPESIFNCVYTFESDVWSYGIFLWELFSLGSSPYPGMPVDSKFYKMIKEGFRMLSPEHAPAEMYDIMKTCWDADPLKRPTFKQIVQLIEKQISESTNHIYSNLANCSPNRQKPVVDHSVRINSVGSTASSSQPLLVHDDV

[1] = target: T30, RSK2(Kin.Dom.2-C-terminal) (Homo sapiens, UniProt P51812); assay: KinomeScan; assay type: binding; details: read-out: % control
T30 construct: RSK2(Kin.Dom.2-C-terminal); purchased DiscoveRx KINOMEscan

EGFR(T790M) = target: T31, EGFR(T790M) (Homo sapiens, UniProt P00533, T790M); assay: KinomeScan; assay type: binding; details: read-out: % control
T31 construct: purchased DiscoveRx KINOMEscan
T31 sequence (P00533 25-1210 T790M): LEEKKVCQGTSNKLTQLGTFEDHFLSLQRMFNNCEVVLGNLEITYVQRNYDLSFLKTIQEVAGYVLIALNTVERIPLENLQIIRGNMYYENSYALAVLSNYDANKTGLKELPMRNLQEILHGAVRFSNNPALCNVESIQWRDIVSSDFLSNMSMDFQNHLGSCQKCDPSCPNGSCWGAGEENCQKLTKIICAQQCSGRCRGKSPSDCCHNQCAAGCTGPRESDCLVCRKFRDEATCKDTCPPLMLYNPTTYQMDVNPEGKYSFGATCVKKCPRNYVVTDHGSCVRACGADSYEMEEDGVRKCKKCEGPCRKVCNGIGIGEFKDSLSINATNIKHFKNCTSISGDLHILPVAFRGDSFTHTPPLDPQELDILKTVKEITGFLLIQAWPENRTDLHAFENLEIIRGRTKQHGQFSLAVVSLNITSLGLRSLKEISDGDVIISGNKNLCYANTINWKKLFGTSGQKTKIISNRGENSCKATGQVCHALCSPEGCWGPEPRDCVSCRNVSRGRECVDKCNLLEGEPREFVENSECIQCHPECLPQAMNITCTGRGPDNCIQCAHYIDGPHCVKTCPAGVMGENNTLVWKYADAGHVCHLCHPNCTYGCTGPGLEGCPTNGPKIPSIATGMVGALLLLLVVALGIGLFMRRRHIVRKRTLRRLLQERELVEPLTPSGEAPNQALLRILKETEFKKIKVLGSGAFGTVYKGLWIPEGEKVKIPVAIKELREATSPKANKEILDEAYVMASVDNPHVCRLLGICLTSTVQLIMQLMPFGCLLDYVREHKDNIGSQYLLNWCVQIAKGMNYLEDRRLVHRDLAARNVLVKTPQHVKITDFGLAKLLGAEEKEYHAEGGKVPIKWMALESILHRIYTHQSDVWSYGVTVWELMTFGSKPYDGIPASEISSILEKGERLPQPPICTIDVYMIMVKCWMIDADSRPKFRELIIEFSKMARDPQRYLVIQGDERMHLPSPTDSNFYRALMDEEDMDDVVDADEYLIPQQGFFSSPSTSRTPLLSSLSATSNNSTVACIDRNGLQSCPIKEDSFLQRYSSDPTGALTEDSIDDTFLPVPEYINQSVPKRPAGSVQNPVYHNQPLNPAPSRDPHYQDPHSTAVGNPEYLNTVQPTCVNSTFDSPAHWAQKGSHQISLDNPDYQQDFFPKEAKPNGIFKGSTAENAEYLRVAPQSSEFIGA

[2] = target: T32, ABL1(F317L)-phosphorylated (Homo sapiens, UniProt P00519, F317L); assay: KinomeScan; assay type: binding; details: read-out: % control
T32 construct: purchased DiscoveRx KINOMEscan

ACVR2A = target: T33, ACVR2A (Homo sapiens, UniProt P27037); assay: KinomeScan; assay type: binding; details: read-out: % control
T33 construct: purchased DiscoveRx KINOMEscan

MTOR = target: T34, MTOR (Homo sapiens, UniProt P42345); assay: KinomeScan; assay type: binding; details: read-out: % control
T34 construct: purchased DiscoveRx KINOMEscan

[3] = target: T35, RSK2(Kin.Dom.1-N-terminal) (Homo sapiens, UniProt P51812); assay: KinomeScan; assay type: binding; details: read-out: % control
T35 construct: RSK2(Kin.Dom.1-N-terminal); purchased DiscoveRx KINOMEscan

ACVR1B = target: T36, ACVR1B (Homo sapiens, UniProt P36896); assay: KinomeScan; assay type: binding; details: read-out: % control
T36 construct: purchased DiscoveRx KINOMEscan

QSK = target: T37, QSK (Homo sapiens, UniProt Q9Y2K2); assay: KinomeScan; assay type: binding; details: read-out: % control
T37 construct: purchased DiscoveRx KINOMEscan

TNK1 = target: T38, TNK1 (Homo sapiens, UniProt Q13470); assay: KinomeScan; assay type: binding; details: read-out: % control
T38 construct: purchased DiscoveRx KINOMEscan

EGFR(G719S) = target: T39, EGFR(G719S) (Homo sapiens, UniProt P00533, G719S); assay: KinomeScan; assay type: binding; details: read-out: % control
T39 construct: purchased DiscoveRx KINOMEscan

ZAP70 = target: T40, ZAP70 (Homo sapiens, UniProt P43403); assay: KinomeScan; assay type: binding; details: read-out: % control
T40 construct: purchased DiscoveRx KINOMEscan
T40 sequence (P43403 whole entry): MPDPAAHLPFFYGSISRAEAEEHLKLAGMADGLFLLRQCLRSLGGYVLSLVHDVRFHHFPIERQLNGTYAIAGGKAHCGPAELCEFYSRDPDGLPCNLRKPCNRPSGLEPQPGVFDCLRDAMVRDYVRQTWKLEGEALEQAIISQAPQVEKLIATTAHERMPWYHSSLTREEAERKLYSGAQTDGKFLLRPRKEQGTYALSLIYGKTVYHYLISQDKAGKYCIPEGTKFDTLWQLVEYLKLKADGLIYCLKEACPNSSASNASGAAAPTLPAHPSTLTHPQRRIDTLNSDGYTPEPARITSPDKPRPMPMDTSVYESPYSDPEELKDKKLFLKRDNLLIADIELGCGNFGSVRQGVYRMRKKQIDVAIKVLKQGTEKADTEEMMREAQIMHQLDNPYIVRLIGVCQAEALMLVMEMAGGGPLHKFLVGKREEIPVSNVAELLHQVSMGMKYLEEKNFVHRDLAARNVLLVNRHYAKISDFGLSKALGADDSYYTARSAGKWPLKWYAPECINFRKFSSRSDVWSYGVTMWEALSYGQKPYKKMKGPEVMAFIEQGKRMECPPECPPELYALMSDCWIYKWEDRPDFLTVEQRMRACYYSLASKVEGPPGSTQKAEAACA

PRKG1 = target: T41, PRKG1 (Homo sapiens, UniProt Q13976); assay: KinomeScan; assay type: binding; details: read-out: % control
T41 construct: purchased DiscoveRx KINOMEscan

SMILES: C=CC(=O)N1CCC[C@@H](n2nc(-c3ccc(OCc4cccc(C)n4)c(Cl)c3)c3c(N)ncnc32)C1 [CHMFL-EGFR-26]
- remaining binding at 1 µM (PFCDPK1(P.falciparum)): 54%
- remaining binding at 1 µM (MYO3A): 97%
- remaining binding at 1 µM (MINK): 29%
- remaining binding at 1 µM (MEK3): 98%
- remaining binding at 1 µM (RAF1): 97%
- remaining binding at 1 µM (EPHA2): 100%
- remaining binding at 1 µM (PKAC-beta): 14%
- remaining binding at 1 µM (MERTK): 79%
- remaining binding at 1 µM (IKK-epsilon): 100%
- GI50 (CHL): > 10 µM
- remaining binding at 1 µM (PIK3CA(E542K)): 93%
- remaining binding at 1 µM (CHEK1): 100%
- remaining binding at 1 µM (ALK(L1196M)): 100%
- remaining binding at 1 µM (CHEK2): 88%
- remaining binding at 1 µM (EPHB6): 82%
- remaining binding at 1 µM (STK35): 23%
- remaining binding at 1 µM (PIM1): 97%
- remaining binding at 1 µM (CAMK2A): 99%
- remaining binding at 1 µM (MAP3K1): 82%
- remaining binding at 1 µM (RET(M918T)): 100%
- remaining binding at 1 µM (SIK): 69%
- remaining binding at 1 µM (NDR1): 71%
- remaining binding at 1 µM (CDK4-cyclinD3): 100%
- remaining binding at 1 µM (CSNK1D): 95%
- remaining binding at 1 µM (CDKL1): 100%
- remaining binding at 1 µM (PRKG2): 100%
- remaining binding at 1 µM (PAK7): 67%
- remaining binding at 1 µM (WNK4): 86%
- remaining binding at 1 µM (TIE2): 78%
- remaining binding at 1 µM (KIT(D816V)): 100%
- remaining binding at 1 µM [1]: 100%
- remaining binding at 1 µM (EGFR(T790M)): 0.25%
- remaining binding at 1 µM [2]: 95%
- remaining binding at 1 µM (ACVR2A): 89%
- remaining binding at 1 µM (MTOR): 100%
- remaining binding at 1 µM [3]: 95%
- remaining binding at 1 µM (ACVR1B): 30%
- remaining binding at 1 µM (QSK): 71%
- remaining binding at 1 µM (TNK1): 64%
- remaining binding at 1 µM (EGFR(G719S)): 18%
- remaining binding at 1 µM (ZAP70): 100%
- remaining binding at 1 µM (PRKG1): 14%

— paper PMC5392334, “Discovery and characterization of a novel irreversible EGFR mutants selective and potent kinase inhibitor CHMFL-EGFR-26 with a distinct binding mode” (Oncotarget, 2017)
